# Tested on: mold mite
# Experiment: Toxicity of plant essential oils fogged into food cartons against mold mites
# Format: in vivo
# Settings: for control of the mites (pest mortality): about 1 g test substance fogged into half pint milk carton, about 100 mites per carton, cartons opened at 24 hour intervals, from day one; for control of the mites (mortality): repeated experiment, cartons not opened until day ten
# Description: Half pint milk cartons were used as sample food containers. The composition of the carton is multilayer paper, plastic and foil. The last two inner layers are foil and plastic; the food inside the carton is in contact with the plastic. Utilizing a ULV sprayer, the plant essential oils were fogged into the container. Approximately one gram of liquid test substance (i.e. plant essential oil) was deposited into the container. The desired amount of food and approximately 100 mites per carton were then added to the container and the carton was sealed. The materials tested included 2-phenyl ethyl alcohol, 2-phenyl ethyl propionate, trans-anethole, and benzyl alcohol. The cartons were opened at 24 hour intervals, a new carton each interval, to observe for pest mortality and the results were recorded.
# The experiment was repeated, but the cartons were not opened until day ten.
compound,measurement,value
CCC(=O)OCCc1ccccc1 [2-phenyl ethyl propionate],control of the mites (pest mortality),good control
same,control of the mites (mortality),best results of mortality
OCCc1ccccc1 [2-phenyl ethyl alcohol],control of the mites (pest mortality),good control
same,control of the mites (mortality),best results of mortality

# Source: patent publication US6689395B2, “Pesticidal compositions containing plant essential oils against mites” (priority 1999, dated 2004)
